Experimental findings from patent US7034046B2, “NR1H4 nuclear receptor binding compounds” (Phenex Pharmaceuticals AG, priority 2001, dated 2006) are described below.

pEC50: −log10 of the molar value. Read-outs that look alike come from different tables or passages of the source.

For experiment [1], the target named is T1, FXR (Homo sapiens, UniProt Q96RI1).
T1 construct: expressed in transfected cells
T1 sequence (Q96RI1 1-472 isoform Q96RI1-2): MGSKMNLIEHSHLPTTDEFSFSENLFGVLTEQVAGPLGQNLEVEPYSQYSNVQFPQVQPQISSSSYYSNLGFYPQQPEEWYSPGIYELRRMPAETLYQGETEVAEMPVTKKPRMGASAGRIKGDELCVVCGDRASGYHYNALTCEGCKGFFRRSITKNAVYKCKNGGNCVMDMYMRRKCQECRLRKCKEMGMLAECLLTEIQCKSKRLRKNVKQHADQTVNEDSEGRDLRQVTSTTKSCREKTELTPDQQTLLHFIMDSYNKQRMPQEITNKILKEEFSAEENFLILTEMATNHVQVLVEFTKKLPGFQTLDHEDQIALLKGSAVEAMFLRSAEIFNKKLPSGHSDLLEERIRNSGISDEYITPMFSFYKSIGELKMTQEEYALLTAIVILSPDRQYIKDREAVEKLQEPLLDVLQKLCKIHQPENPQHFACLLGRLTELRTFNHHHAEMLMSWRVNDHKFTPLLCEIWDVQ
Put plainly: FXR-mediated transactivation, luciferase reporter in stable HEK293FXR reporter cell line. As to conditions: HEK293FXR reporter cells, 16 hours. It is filed as cell-based. The text has this: A compound according to the invention (experiments shown were done with MOLSTRUCTURE LN 0000006734; see Table 1 for structural formula) can mediate transactivation of FXR-mediated transcription in a HEK293 reporter cell line. […] The full length human FXR (accession U68233) and the full length human RXRα (accession P19793) were cloned into the […]30 applying the manufacturer protocols for the GatewayTM system (Invitrogen). The FXR response elements were cloned (upper case). [NT] ID NO. 5) was obtained from the human IBAB-P promoter (Grober et al 1999, JBC 274, pp. 29749-29754). A stable clone was selected and seeded at a density of 5×10^4 cells per well in 48 well plates. […] Variations of duplicate measurements are within 20%.
Background: In a reporter assay the amount or activity of a reporter protein is the signal.

Experiment [2] has as its target T2, human FXR alpha (NR1H4) (Homo sapiens, UniProt Q96RI1).
T2 construct: human FXR alpha (NR1H4—(Acc. No:AF384555)) encoding amino acids 187–472; made in house; host or cells: E. coli BL21
T2 sequence (Q96RI1 187-472 isoform Q96RI1-2): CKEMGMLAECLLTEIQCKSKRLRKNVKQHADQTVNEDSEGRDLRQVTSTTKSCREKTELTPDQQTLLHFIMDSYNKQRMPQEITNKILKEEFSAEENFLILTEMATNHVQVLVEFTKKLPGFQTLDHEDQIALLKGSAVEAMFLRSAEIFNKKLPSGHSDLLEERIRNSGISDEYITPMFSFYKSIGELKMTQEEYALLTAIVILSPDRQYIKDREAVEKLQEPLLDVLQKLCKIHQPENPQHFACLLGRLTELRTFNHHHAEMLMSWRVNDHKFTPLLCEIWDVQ
T2 sequence (Q15596 548-878 partner limits assumed): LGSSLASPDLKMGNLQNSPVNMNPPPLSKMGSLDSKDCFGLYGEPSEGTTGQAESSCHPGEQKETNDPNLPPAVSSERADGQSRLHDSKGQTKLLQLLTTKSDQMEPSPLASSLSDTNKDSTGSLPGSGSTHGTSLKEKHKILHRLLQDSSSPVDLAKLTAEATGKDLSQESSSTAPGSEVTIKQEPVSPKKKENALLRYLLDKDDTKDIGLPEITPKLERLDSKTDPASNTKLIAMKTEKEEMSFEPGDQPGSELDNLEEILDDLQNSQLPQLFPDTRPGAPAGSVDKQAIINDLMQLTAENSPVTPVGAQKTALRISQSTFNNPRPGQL
Kind of experiment: In vitro screening for FXR binding to coactivator TIF2 (LANCE TR-FRET). It counts as biochemical. The text has this:
For screening purposes a fragment of the open reading frame of human FXR alpha (NR1H4—(Acc. No:AF384555)) encoding amino acids 187–472 was amplified by standard RT PCR procedures (see FIGS. 2A and 2B; SEQ ID NO. 1 and 2). Starting material was total RNA derived from human liver. The resulting cDNA obtained after reverse transcription was subsequently cloned using the Gateway™ recombination technology (Invitrogen, USA) into the expression plasmid pDest15 (Invitrogen, USA). This construct was used to express a recombinant GST-FXR fusion protein in E.coli (BL21 strain). A pDEST 17 derivative clone harboring an additional sequence encoding amino acids 548–878 of human TIF2 (Acc. No: XM—011633 RefSeq) (see FIGS. 2C and 2D, SEQ ID NO. 3 and 4) was constructed using Gateway™ recombination technology (Invitrogen, USA) in order to obtain a construct which was used to express recombinant His-tagged TIF2 fragment could be expressed in E. coli. For E. coli expression of both constructs, plasmid DNA was transformed into chemically competent E. coli BL21 (Invitrogen, USA) and cells were grown to an OD600 of 0.4–0.7 before expression was induced by addition of 0.5 mM IPTG according instructions of the manufacturer (Invitrogen). After induction for 8 hours at 30° C. cells were harvested by centrifugation for 10 minutes at 5000×g. Fusion proteins were affinity purified using Glutathion sepharose (Pharmacia) or Ni-NTA Agarose (QIAGEN) according to the instructions of the respective manufacturer. Recombinant proteins were dialyzed against 20 mM Tris/HCL pH 7.9; 60 mM KCl; 5 mM MgCl2; 1 mM DTT, 0.2 mM PMSF; and 10% glycerol. The TIF2 fragment was subsequently biotinylated by addition of 40–120 μl of a biotinamidocaproate N-hydroxysuccinimide-ester (Sigma) solution (20 mg/ml in DMSO). Overhead rotating samples were incubated for two hours at room temperature. Unincorporated label was then separated using G25 Gel filtration chromatography (Pharmacia Biotech, Sweden). Protein containing fractions from the column were pooled and tested for activity in the assay as described below.
For screening of compound libraries as provided for by the methods shown below in the examples for substances which influence the FXR/Tif 2 interaction, the Perkin Elmer LANCE technology was applied. This method relies on the binding dependent energy transfer from a donor to an acceptor fluorophore attached to the binding partners of interest. For ease of handling and reduction of background from compound fluorescence LANCE technology makes use of generic fluorophore labels and time resolved detection (for detailed description See Hemmilä I, Blomberg K and Hurskainen P, Time-resolved resonance energy transfer (TR-FRET) principle in LANCE, Abstract of Papers Presented at the 3rd Annual Conference of the Society for Biomolecular Screening, Sep., California (1997)).
For screening, 20–200 ng of biotinylated Tif 2 fragment and 10–200 ng of GST-FXR fragment were combined with 0.5–2 nM LANCE Eu-(W1024) labeled anti-GST antibody (Perkin Elmer) and 0.5–2 μg of Highly fluorescent APC-labeled streptavidin (Perkin Elmer) in the presence of 50 μM of individual compounds to be screened in a total volume of 25 μl of 20 mM Tris/HCl pH 7.9; 60 mM KCl; 5 mM MgCl2; and 160 ng/μl BSA. DMSO content of the samples was kept below 4%. Samples were incubated for a minimum of 60 minutes in the dark at room temperature in FIA-Plates black 384well med. binding (Greiner).
The LANCE signal was detected by a Perkin Elmer VICTOR2V™ Multilabel Counter applying the detection parameters listed in Table 3, below. The results were visualized by plotting the ratio between the emitted light at 665 nm and at 615 nm. For every batch of recombinant proteins amount of proteins and labeling reagents giving the most sensitive detection of hits was determined individually by analysis of dose response curves for chenodeoxycholic acid.
Background: In TR-FRET formats the signal depends on donor and acceptor labels being close together.

[3] abbreviates: average of multiple experiments, read-out: EC50 AVG.

On to `CC(C)c1onc(-c2c(Cl)cccc2Cl)c1COc1ccc2cc(C(=O)O)ccc2c1` [LN0000000169], for which the Luciferase reporter activity in experiment [1] (0.08 μM) came to 1630.0; in experiment [1] (0.4 μM), 2754.0; in experiment [1] (1 μM), 4600.0; in experiment [1] (2 μM) it was 5775.7; in experiment [1] (10 μM) it was 6829.3; in experiment [1] (50 μM), 13375.7. In addition, the pEC50 in experiment [2] (setting [3]) was 5.59. Further, the “EFFIC AVG (average efficacy, % activity relative to CDCA control agonist)” value in experiment [2] is recorded as 134%.
As to `CC(C)c1onc(-c2c(Cl)cccc2Cl)c1COc1ccc(Oc2ccc(C(=O)O)cc2)cc1` [LN0000006734], the Luciferase reporter activity in experiment [1] (0.08 μM) is reported as 2153.0; in experiment [1] (0.4 μM), 2991.5; in experiment [1] (1 μM), 5360.5; in experiment [1] (2 μM), 6330.5; in experiment [1] (10 μM) it was 8523.5; in experiment [1] (50 μM) it was 13309.5. Moreover, the pEC50 is around 6.00 in experiment [1] (read-out: EC50 of dose-dependent transactivation of the reporter gene luciferase by FXR) and 6.22 in experiment [2] (setting [3]). In experiment [2], the “EFFIC AVG (average efficacy, % activity relative to CDCA control agonist)” value is 85%.
Turning to `COC(=O)CCc1ccc(OCc2c(-c3c(Cl)cccc3Cl)noc2C(C)C)cc1` [LN0000006764], the pEC50 in experiment [2] (setting [3]) was 6.14. Further, the “EFFIC AVG (average efficacy, % activity relative to CDCA control agonist)” value in experiment [2] is reported as 108%.
Take `CC(C)c1onc(-c2c(Cl)cccc2Cl)c1COc1ccc(CCC(=O)O)cc1` [LN0000006765]: the pEC50 in experiment [2] (setting [3]) is 6.37. In addition, in experiment [2], the “EFFIC AVG (average efficacy, % activity relative to CDCA control agonist)” value was determined as 115%.
The matching figures for `CC(C)c1onc(-c2c(Cl)cccc2Cl)c1COc1ccc(OCC(=O)O)cc1` [LN0000006767]: 6.64 and 117%.
With `CC(C)c1onc(-c2c(Cl)cccc2Cl)c1COc1ccc(/C=C/C(=O)O)c(Cl)c1` [LN0000006772], the pEC50 in experiment [2] (setting [3]) was 7.30. Besides, the “EFFIC AVG (average efficacy, % activity relative to CDCA control agonist)” value in experiment [2] amounted to 100%.
Take `CC(C)c1onc(-c2c(Cl)cccc2Cl)c1COc1ccc(OCC(=O)O)cc1` [formula (II)]: the pEC50 in experiment [2] (read-out: EC50 at FXR (half-maximal effective concentration)) was 6.64.
As for `CC(C)c1onc(-c2c(Cl)cccc2Cl)c1COc1ccc(Oc2ccc(C(=O)O)cc2)cc1` [formula III], in experiment [2], the “agonist of the NR1H4 human nuclear receptor” value was “active as agonist”.
The same measure, in the same setting: the result for `CC(C)c1onc(-c2c(Cl)cccc2Cl)c1COc1ccc(CCC(=O)O)cc1` [formula IV] reads “active as agonist”.
As for `CC(C)c1onc(-c2c(Cl)cccc2Cl)c1COc1ccc(/C=C/C(=O)O)c(Cl)c1` [formula V], the “agonist of the NR1H4 human nuclear receptor” value in experiment [2] is “active as agonist”.
